Results taken from ChEMBL document CHEMBL3351836, “Inhibition of carbonic anhydrase isoforms I, II, IX and XII with novel Schiff bases: identification of selective inhibitors for the tumor-associated isoforms over the cytosolic ones” (Bioorg Med Chem, 2014).

Biological target: Carbonic anhydrase 9 (Homo sapiens, UniProt Q16790)
Test: Inhibition of human CA-9 after 15 mins by stopped-flow CO2 hydration method

How did the Ki turn out when `NS(=O)(=O)c1ccc(CC/N=C/c2ccc(-c3ccccc3)cc2)cc1` was run?
The Ki was 0.244 µM.

Which Ki does the source give for `NS(=O)(=O)c1ccc(/N=C/c2ccc(-c3ccccn3)cc2)cc1` here?
Its Ki is 0.162 µM.

With `NS(=O)(=O)c1ccc(CC/N=C/c2cccc(Br)c2O)cc1` as the molecule, how does the Ki read?
Its Ki is 0.251 µM.

How did the Ki turn out when `NS(=O)(=O)c1ccc(/N=C/c2ccc(Br)cc2O)cc1` was run?
Its Ki is 0.0281 µM.

How did the Ki turn out when `CSc1ccc(/C=N/CCc2ccc(S(N)(=O)=O)cc2)cc1` was run?
Its Ki is 0.0236 µM.

For `NS(=O)(=O)c1ccc(CC/N=C/c2c(F)c(F)cc(F)c2F)cc1`, which Ki is on record?
The Ki was 0.213 µM.

With `COc1cc([N+](=O)[O-])ccc1/C=N/CCc1ccc(S(N)(=O)=O)cc1` as the molecule, how does the Ki read?
Its Ki is 0.154 µM.

For `COc1ccc(/C=N/CCc2ccc(S(N)(=O)=O)cc2)c(O)c1`, which Ki is on record?
Its Ki is 1.87 µM.

For `NS(=O)(=O)c1ccc(/N=C/c2ccco2)c(F)c1`, which Ki is on record?
Its Ki is 0.165 µM.

`NS(=O)(=O)c1ccc(CC/N=C/c2ccc(-c3ccccn3)cc2)cc1` was tested. Which Ki did it give?
The Ki was 0.0279 µM.

Which Ki does the source give for `NS(=O)(=O)c1ccc(CC/N=C/c2ccc(Br)cc2O)cc1` here?
The Ki was 0.106 µM.

For `NS(=O)(=O)c1ccc(/N=C/c2ccc(-c3ccccc3)cc2)c(F)c1`, which Ki is on record?
The Ki was 0.113 µM.

With `NS(=O)(=O)c1ccc(/N=C/c2csc3ccccc23)cc1` as the molecule, how does the Ki read?
The Ki was 0.197 µM.

How did the Ki turn out when `N#Cc1ccc(/C=N/CCc2ccc(S(N)(=O)=O)cc2)cc1` was run?
Its Ki is 0.0185 µM.

For `NS(=O)(=O)c1ccc(CC/N=C/c2ccc(S(=O)(=O)O)o2)cc1`, which Ki is on record?
Its Ki is 0.193 µM.

With `NS(=O)(=O)c1ccc(CC/N=C/c2c[nH]c3ccc(Br)cc23)cc1` as the molecule, how does the Ki read?
Its Ki is 1.88 µM.
